This is an account of results in ChEMBL document CHEMBL5463725, “Data for DCP probe BAY-277” (2023).

Structures are written as SMILES. Calls of active or inactive are those of the source. No cut-off for these calls is given here.

Test [1] has as its target Testis-specific serine/threonine-protein kinase 4 (Homo sapiens) (UniProt Q6SA08). Nature of the test: Inhibition of TSSK4(h) at 10.0 µM in the Eurofins Kinase panel. As to conditions: Compound concentration 10.0 uM.
Test [2] deals with Serine/threonine-protein kinase 26 (Homo sapiens) (UniProt Q9P289). The test can be described thus: Inhibition of MST4(h) at 10.0 µM in the Eurofins Kinase panel. As to conditions: Compound concentration 10.0 uM.
In test [3] the target is Interferon-induced, double-stranded RNA-activated protein kinase (Homo sapiens) (UniProt P19525). The test can be described thus: Inhibition of PKR(h) at 10.0 µM in the Eurofins Kinase panel. As to conditions: Compound concentration 10.0 uM.
In test [4] the target is Serine/threonine-protein kinase DCLK3 (Homo sapiens) (UniProt Q9C098). The test can be described thus: Inhibition of DCAMKL3(h) at 10.0 µM in the Eurofins Kinase panel. As to conditions: Compound concentration 10.0 uM.
Sequence of Serine/threonine-protein kinase DCLK3 (Homo sapiens) (Q9C098 whole entry): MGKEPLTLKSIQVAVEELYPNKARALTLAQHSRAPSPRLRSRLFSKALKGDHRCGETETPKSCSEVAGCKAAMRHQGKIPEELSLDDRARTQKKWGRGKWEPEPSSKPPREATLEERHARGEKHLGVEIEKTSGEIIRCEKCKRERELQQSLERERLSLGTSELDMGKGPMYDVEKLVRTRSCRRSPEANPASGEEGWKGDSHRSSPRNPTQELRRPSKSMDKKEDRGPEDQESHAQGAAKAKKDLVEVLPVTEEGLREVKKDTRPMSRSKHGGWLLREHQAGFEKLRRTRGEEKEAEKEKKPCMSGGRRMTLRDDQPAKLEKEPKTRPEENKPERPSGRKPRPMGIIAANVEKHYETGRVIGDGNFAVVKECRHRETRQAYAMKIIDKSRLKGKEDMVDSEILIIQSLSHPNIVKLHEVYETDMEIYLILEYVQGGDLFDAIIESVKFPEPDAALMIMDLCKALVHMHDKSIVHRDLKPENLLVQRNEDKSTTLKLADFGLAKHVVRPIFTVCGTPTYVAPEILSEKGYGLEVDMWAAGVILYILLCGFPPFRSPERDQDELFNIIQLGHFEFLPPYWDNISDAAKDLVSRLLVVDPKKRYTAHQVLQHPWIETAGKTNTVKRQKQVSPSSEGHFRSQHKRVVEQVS
For test [5], the target named is Tyrosine-protein kinase Lck (Homo sapiens) (UniProt P06239). Nature of the test: Inhibition of Lck(h) activated at 10.0 µM in the Eurofins Kinase panel. As to conditions: Compound concentration 10.0 uM.
For test [6], the target named is Protein kinase C alpha type (Homo sapiens) (UniProt P17252). The test can be described thus: Inhibition of PKCalpha(h) at 10.0 µM in the Eurofins Kinase panel. As to conditions: Compound concentration 10.0 uM.
The target of test [7] is Serine/threonine-protein kinase Nek5 (Homo sapiens) (UniProt Q6P3R8). The test can be described thus: Inhibition of NEK5(h) at 10.0 µM in the Eurofins Kinase panel. As to conditions: Compound concentration 10.0 uM.
Sequence of Serine/threonine-protein kinase Nek5 (Homo sapiens) (Q6P3R8 whole entry): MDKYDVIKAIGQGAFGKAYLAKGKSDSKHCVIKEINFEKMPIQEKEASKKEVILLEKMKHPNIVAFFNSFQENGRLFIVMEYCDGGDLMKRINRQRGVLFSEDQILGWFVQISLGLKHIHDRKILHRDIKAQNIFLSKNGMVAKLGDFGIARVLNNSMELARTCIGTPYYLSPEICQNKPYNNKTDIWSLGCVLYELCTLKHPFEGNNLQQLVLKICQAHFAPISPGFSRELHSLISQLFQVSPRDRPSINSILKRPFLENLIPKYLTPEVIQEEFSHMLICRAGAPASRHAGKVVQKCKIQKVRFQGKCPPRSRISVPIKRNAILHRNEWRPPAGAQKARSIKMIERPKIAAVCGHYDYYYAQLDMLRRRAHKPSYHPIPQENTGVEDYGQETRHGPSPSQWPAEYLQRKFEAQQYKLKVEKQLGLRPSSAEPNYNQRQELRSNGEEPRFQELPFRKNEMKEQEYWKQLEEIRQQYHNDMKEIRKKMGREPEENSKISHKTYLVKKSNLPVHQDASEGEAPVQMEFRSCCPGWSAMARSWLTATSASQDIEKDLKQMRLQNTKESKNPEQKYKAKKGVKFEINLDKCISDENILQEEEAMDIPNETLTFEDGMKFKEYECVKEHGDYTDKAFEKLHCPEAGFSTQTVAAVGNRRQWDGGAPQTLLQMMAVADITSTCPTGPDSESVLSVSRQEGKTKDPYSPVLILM
Test [8] concerns the target Serine/threonine-protein kinase ICK (Homo sapiens) (UniProt Q9UPZ9). The test can be described thus: Inhibition of ICK(h) at 10.0 µM in the Eurofins Kinase panel. As to conditions: Compound concentration 10.0 uM.
For test [9], the target named is Serine/threonine-protein kinase Sgk3 (Homo sapiens) (UniProt Q96BR1). Nature of the test: Inhibition of SGK3(h) at 10.0 µM in the Eurofins Kinase panel. As to conditions: Compound concentration 10.0 uM.
Test [10] addresses SNF-related serine/threonine-protein kinase (Homo sapiens) (UniProt Q9NRH2). Nature of the test: Inhibition of SNRK(h) at 10.0 µM in the Eurofins Kinase panel. As to conditions: Compound concentration 10.0 uM.
Test [11] has as its target [Pyruvate dehydrogenase (acetyl-transferring)] kinase isozyme 2, mitochondrial (Homo sapiens) (UniProt Q15119). The test can be described thus: Inhibition of PDHK2(h) at 10.0 µM in the Eurofins Kinase panel. As to conditions: Compound concentration 10.0 uM.
Test [12] has as its target Tyrosine-protein kinase Fgr (Homo sapiens) (UniProt P09769). Nature of the test: Inhibition of Fgr(h) at 10.0 µM in the Eurofins Kinase panel. As to conditions: Compound concentration 10.0 uM.
The target in test [13] is Serine/threonine-protein kinase Nek1 (Homo sapiens) (UniProt Q96PY6). The test can be described thus: Inhibition of NEK1(h) at 10.0 µM in the Eurofins Kinase panel. As to conditions: Compound concentration 10.0 uM.
Test [14] has as its target TRAF2 and NCK-interacting protein kinase (Homo sapiens) (UniProt Q9UKE5). The test can be described thus: Inhibition of TNIK(h) at 10.0 µM in the Eurofins Kinase panel. As to conditions: Compound concentration 10.0 uM.
For test [15], the target named is PAS domain-containing serine/threonine-protein kinase (Homo sapiens) (UniProt Q96RG2). The test can be described thus: Inhibition of PASK(h) at 10.0 µM in the Eurofins Kinase panel. As to conditions: Compound concentration 10.0 uM.
The target of test [16] is Protein kinase C gamma type (Homo sapiens) (UniProt P05129). Nature of the test: Inhibition of PKCgamma(h) at 10.0 µM in the Eurofins Kinase panel. As to conditions: Compound concentration 10.0 uM.
Test [17] deals with Ribosomal protein S6 kinase beta-1 (Homo sapiens) (UniProt P23443). Nature of the test: Inhibition of p70S6K(h) at 10.0 µM in the Eurofins Kinase panel. As to conditions: Compound concentration 10.0 uM.
Test [18] concerns the target MAP kinase-activated protein kinase 2 (Homo sapiens) (UniProt P49137). Nature of the test: Inhibition of MAPKAP-K2(h) at 10.0 µM in the Eurofins Kinase panel. As to conditions: Compound concentration 10.0 uM.
Test [19] addresses STE20/SPS1-related proline-alanine-rich protein kinase (Homo sapiens) (UniProt Q9UEW8). The test can be described thus: Inhibition of STK39(h) at 10.0 µM in the Eurofins Kinase panel. As to conditions: Compound concentration 10.0 uM.
The target of test [20] is Serine/threonine-protein kinase DCLK2 (Homo sapiens) (UniProt Q8N568). The test can be described thus: Inhibition of DCAMKL2(h) at 10.0 µM in the Eurofins Kinase panel. As to conditions: Compound concentration 10.0 uM.
A further test has as its target D(3) dopamine receptor (Homo sapiens, UniProt P35462). Nature of the test: GPCRScan assay: inhibition of D3. The arrangement: radioligand conc. used [nm] 0.5 – 1.8, parental cells HEKT.
Test [21] addresses Tribbles homolog 2 (Homo sapiens) (UniProt Q92519). Nature of the test: Inhibition of TRB2(h) at 10.0 µM in the Eurofins Kinase panel. As to conditions: Compound concentration 10.0 uM.
The target of test [22] is Sodium- and chloride-dependent GABA transporter 1 (Rattus norvegicus) (UniProt P23978). Nature of the test: Inhibition of Transporter, GABA at 10.0 µM in the Eurofins Panlabs Safety Screen. As to conditions: Compound concentration 10.0 uM.
Test [23] deals with RAC-beta serine/threonine-protein kinase (Homo sapiens) (UniProt P31751). Nature of the test: Inhibition of PKBbeta(h) at 10.0 µM in the Eurofins Kinase panel. As to conditions: Compound concentration 10.0 uM.
Sequence of RAC-beta serine/threonine-protein kinase (Homo sapiens) (P31751 whole entry): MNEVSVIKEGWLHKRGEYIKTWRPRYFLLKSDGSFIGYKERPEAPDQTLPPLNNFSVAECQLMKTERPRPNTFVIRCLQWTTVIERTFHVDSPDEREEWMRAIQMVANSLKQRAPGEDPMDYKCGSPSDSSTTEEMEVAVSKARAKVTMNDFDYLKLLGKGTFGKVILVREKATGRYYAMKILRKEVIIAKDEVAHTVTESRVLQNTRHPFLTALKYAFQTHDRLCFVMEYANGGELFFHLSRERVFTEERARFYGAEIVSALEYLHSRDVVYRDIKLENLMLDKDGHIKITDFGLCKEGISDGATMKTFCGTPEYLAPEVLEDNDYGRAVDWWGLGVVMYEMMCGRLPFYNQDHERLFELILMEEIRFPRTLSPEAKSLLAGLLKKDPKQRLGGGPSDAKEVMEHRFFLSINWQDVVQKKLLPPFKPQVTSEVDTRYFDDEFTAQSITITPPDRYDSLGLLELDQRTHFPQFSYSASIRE
The target in test [24] is Serine/threonine-protein kinase Sgk1 (Homo sapiens) (UniProt O00141). The test can be described thus: Inhibition of SGK(h) at 10.0 µM in the Eurofins Kinase panel. As to conditions: Compound concentration 10.0 uM.
Sequence of Serine/threonine-protein kinase Sgk1 (Homo sapiens) (O00141 whole entry): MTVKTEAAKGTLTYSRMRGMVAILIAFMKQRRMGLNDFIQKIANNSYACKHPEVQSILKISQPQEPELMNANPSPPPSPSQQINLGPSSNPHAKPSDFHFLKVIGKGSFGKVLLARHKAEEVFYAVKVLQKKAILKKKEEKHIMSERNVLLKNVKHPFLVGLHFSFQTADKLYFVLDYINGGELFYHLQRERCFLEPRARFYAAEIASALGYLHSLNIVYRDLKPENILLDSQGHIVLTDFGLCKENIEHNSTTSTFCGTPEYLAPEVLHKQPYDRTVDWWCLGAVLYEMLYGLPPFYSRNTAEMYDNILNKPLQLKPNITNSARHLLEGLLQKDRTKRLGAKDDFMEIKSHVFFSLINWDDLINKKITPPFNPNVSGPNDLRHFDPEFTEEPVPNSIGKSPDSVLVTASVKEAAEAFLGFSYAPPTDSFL
The target in test [25] is Tyrosine-protein kinase Mer (Homo sapiens) (UniProt Q12866). Nature of the test: Inhibition of Mer(h) at 10.0 µM in the Eurofins Kinase panel. As to conditions: Compound concentration 10.0 uM.
The target in test [26] is MAP kinase-activated protein kinase 3 (Homo sapiens) (UniProt Q16644). The test can be described thus: Inhibition of MAPKAP-K3(h) at 10.0 µM in the Eurofins Kinase panel. As to conditions: Compound concentration 10.0 uM.
The target in test [27] is Activin receptor type-1-like (Homo sapiens) (UniProt P37023). The test can be described thus: Inhibition of ALK1(h) at 10.0 µM in the Eurofins Kinase panel. As to conditions: Compound concentration 10.0 uM.
In test [28] the target is Serine/threonine-protein kinase tousled-like 1 (Homo sapiens) (UniProt Q9UKI8). The test can be described thus: Inhibition of TLK1(h) at 10.0 µM in the Eurofins Kinase panel. As to conditions: Compound concentration 10.0 uM.
For test [29], the target named is T1, Methionine aminopeptidase 2 (Homo sapiens, UniProt P50579). Nature of the test: Degradation in HT1080 cells (CE) Dmax (Capillary electrophoresis (CE)). In kind it is functional, cell-based. As to conditions: HT-1080.
T1 sequence (P50579 2-478 limits assumed): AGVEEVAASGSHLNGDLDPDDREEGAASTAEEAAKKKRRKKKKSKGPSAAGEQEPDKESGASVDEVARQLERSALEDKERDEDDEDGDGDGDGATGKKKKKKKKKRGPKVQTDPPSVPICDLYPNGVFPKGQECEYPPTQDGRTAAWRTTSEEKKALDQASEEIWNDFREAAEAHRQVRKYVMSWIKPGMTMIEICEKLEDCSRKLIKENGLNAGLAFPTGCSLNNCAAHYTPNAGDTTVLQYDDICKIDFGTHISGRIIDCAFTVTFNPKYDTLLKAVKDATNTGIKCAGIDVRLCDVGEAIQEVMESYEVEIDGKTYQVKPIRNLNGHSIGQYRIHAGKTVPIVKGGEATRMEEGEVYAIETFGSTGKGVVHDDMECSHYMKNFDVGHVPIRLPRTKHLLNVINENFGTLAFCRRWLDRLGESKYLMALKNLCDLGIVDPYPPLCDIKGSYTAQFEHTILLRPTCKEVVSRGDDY
The target in test [30] is Beta-1 adrenergic receptor (Homo sapiens) (UniProt P08588). As to conditions: Compound concentration 10.0 uM.
Sequence of Beta-1 adrenergic receptor (Homo sapiens) (P08588 whole entry, looked up): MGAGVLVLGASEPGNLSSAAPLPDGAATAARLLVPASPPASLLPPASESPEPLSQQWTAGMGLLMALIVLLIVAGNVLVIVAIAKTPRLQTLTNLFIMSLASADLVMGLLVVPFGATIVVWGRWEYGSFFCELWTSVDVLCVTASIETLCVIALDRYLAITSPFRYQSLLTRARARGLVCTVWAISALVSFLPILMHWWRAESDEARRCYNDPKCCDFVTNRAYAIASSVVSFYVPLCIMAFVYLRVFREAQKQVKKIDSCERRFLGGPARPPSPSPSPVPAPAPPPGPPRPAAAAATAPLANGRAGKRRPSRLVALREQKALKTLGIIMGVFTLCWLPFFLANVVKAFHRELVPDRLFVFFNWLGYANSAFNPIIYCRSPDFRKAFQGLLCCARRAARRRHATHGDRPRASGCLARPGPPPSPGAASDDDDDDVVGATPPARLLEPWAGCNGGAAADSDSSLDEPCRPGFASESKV
In test [31] the target is Muscarinic acetylcholine receptor M5 (Homo sapiens, UniProt P08912). Nature of the test: GPCRScan assay: inhibition of M5. The arrangement: radioligand conc. used [nm] 0.2 – 1.0, parental cells stable CHO.
Sequence of Muscarinic acetylcholine receptor M5 (P08912 whole entry): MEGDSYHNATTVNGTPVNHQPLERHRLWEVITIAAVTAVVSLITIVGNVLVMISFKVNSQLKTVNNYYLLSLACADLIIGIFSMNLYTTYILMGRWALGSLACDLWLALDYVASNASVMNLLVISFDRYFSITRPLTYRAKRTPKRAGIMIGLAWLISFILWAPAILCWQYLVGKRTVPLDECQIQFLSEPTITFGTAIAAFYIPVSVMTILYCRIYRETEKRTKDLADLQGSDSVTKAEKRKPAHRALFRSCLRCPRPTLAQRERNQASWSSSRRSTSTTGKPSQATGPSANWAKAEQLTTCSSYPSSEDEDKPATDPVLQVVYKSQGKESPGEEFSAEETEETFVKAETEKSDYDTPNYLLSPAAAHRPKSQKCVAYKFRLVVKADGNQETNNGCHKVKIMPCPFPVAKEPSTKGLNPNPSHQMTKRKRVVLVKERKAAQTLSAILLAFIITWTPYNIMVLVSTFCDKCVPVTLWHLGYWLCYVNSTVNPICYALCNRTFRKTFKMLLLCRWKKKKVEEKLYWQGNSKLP
Test [32] has as its target Cannabinoid receptor 1 (Homo sapiens) (UniProt P21554). Nature of the test: Inhibition of Cannabinoid CB1 at 10.0 µM in the Eurofins Panlabs Safety Screen. As to conditions: Compound concentration 10.0 uM.
The target of test [33] is T1, Methionine aminopeptidase 2. The test can be described thus: Degradation in HUVEC cells (WB) Dmax (Western Blot (WB)). Type of test: functional, cell-based. (Immunoblotting shows a protein as a band on a membrane.)
Test [34] deals with Methionine aminopeptidase 2 (Mus musculus, UniProt O08663). Nature of the test: METAP2 biochemical assay (mouse).
Test [35] addresses Tyrosine-protein kinase Yes (Homo sapiens) (UniProt P07947). Nature of the test: Inhibition of Yes(h) at 10.0 µM in the Eurofins Kinase panel. As to conditions: Compound concentration 10.0 uM.
Test [36] concerns the target Megakaryocyte-associated tyrosine-protein kinase (Homo sapiens) (UniProt P42679). The test can be described thus: Inhibition of MATK(h) at 10.0 µM in the Eurofins Kinase panel. As to conditions: Compound concentration 10.0 uM.
In test [37] the target is Tyrosine-protein kinase JAK2 (Homo sapiens) (UniProt O60674). Nature of the test: Inhibition of JAK2(h) at 10.0 µM in the Eurofins Kinase panel. As to conditions: Compound concentration 10.0 uM.
Test [38] has as its target Serine/threonine-protein kinase pim-3 (Homo sapiens) (UniProt Q86V86). The test can be described thus: Inhibition of Pim-3(h) at 10.0 µM in the Eurofins Kinase panel. As to conditions: Compound concentration 10.0 uM.

Sequence of D(3) dopamine receptor (P35462 whole entry): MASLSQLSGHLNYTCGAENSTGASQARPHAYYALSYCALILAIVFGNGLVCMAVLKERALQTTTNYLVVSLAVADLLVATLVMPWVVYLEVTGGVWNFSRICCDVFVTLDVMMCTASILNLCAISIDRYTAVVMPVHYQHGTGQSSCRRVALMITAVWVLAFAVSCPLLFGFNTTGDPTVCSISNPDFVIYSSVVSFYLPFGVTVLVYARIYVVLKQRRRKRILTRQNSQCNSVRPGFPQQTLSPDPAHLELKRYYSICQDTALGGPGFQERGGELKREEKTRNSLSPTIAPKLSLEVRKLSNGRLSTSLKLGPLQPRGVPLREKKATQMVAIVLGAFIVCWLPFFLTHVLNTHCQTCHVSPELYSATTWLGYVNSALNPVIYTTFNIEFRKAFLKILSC
Sequence of Serine/threonine-protein kinase ICK (Homo sapiens) (Q9UPZ9 whole entry): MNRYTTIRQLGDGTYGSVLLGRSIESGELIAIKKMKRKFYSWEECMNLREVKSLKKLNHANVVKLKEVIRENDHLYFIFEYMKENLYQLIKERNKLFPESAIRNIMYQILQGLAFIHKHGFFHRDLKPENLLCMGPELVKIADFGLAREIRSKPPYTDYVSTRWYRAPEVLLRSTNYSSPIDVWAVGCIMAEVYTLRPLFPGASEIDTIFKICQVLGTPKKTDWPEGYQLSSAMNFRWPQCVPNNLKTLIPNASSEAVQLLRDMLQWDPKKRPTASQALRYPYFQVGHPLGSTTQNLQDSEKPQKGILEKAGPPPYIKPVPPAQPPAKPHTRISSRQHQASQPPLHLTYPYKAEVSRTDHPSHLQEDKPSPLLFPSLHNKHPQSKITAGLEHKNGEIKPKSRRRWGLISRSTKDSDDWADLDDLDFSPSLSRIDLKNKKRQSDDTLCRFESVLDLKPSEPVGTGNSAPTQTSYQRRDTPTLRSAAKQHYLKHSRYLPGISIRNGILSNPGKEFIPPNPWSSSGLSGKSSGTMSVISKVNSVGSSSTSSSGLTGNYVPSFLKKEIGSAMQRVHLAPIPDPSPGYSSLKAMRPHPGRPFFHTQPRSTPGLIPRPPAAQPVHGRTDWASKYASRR

For `O=C1NCCCC1N1Cc2cc(C3CCN(C(=O)CCCCCN4CCC(c5ccc(Oc6nn7cnnc7c7c6CCCC7)cc5)CC4)CC3)ccc2C1=O` (stereo unspecified), the inhibition in [1] came to 10.8%; in test [2] it was 10.1%; in [3], 10.3%; in test [4], 10.5%; in test [5], 13.3%; in [6], 12.8%. The inhibition is 17.5% in test [7]; 10.1% in test [8]; 13.4% in test [9]; 10.6% in test [10]; 18.6% in test [11]; 10.1% in test [12]. The inhibition came to 11.4% in test [13]; 12.5% in test [14]; 23.9% in test [15]; 10.9% in test [16]; 10.2% in [17]; 16.6% in test [18]. The inhibition in test [19] turned out to be 11.5%; in test [20], 12%; in [21] it was 10.9%; in test [22], 8%; in test [23], 14.1%; in test [24], 10.8%. Further, the inhibition in [25] is 17.9%; in [26] it was 11.4%. For the same molecule, the results for the Ki on D(3) dopamine receptor (read-out: Ki) and on D(3) dopamine receptor (read-out: pKi (converted)) were 525 nM and 490 nM, respectively.
`O=C1CCC(N2Cc3cc(C4CCN(C(=O)CCCCCN5CCC(c6ccc(Oc7nn8cnnc8c8c7CCCC8)cc6)CC5)CC4)ccc3C2=O)C(=O)N1` (stereo unspecified): the inhibition is 11.5% in [27]; 12.3% in test [28]; 0.81% in [30]; 1% in [32]; 10.9% in test [35]; 19.7% in [36]. Also, the results for the inhibition in test [37] and in [38] were 21.8% and 10.3%, respectively. The Dmax in test [29] is 88.5%. Moreover, the Ki in test [31] (read-out: Ki) was 568 nM; in test [31] (read-out: pKi (converted)) it was 562 nM. The DCmax in test [33] is 94%. In [34], the concentration for half-maximal inhibition (IC50) is 5.9 nM (active).

One may read the inhibition as the relative decrease from the control value, in per cent. For orientation: Dmax means the greatest extent of degradation seen. What is called IC50 is the point on the concentration scale where inhibition reaches its midpoint.
